According to patent US20200268702A1, “METHODS OF TREATING […]” (Amarin Pharmaceuticals Ireland Limited, priority 2013, published 2020):

Experiment: Essential fatty acid parameters in plasma and RBC, 6-week AAMI study
Assay type: in vivo, human
Protocol: Blood samples (10 mL) were collected at Visit 1 (screening) and at Visits 4, 5 and 6. Analysis was performed by MSR Lipid Analysis, Scottish Crop Research Institute, Dundee, UK. The screening sample acted as baseline for the EFA measurements. Lipid was extracted from plasma, serum and RBC suspensions and converted into fatty acid methyl esters which were analyzed by gas chromatography to give fatty acid profiles as micrograms fatty acid per gram of sample (μgFA/g) and normalized area percent. RBC and plasma EFA data were collected at baseline, Day 14, 28 and 42 and summarized by visit for each treatment group. Change from baseline and percent change from baseline were also summarized. ANCOVA comparison of ethyl-EPA dose groups and ethyl-EPA versus placebo was performed.

CC/C=C\C/C=C\C/C=C\C/C=C\C/C=C\CCCC(=O)OCC [AMR101, ethyl eicosapentaenoate]
AA, Plasma, Mean (SD) change from Baseline (1 g daily, Day 14): −9.7 (22.20) μg/g
AA, RBC, Mean (SD) change from Baseline (1 g daily, Day 14): −8.1 (21.95) μg/g
DGLA, Plasma, mean (SD) change from Baseline (1 g daily, Day 14): −10.4 (10.90) μg/g
DGLA, RBC, mean (SD) change from Baseline (1 g daily, Day 14): −2.7 (3.82) μg/g
DHA, Plasma, Mean (SD) change from Baseline (1 g daily, Day 14): −6.4 (13.30) μg/g
DHA, RBC, Mean (SD) change from Baseline (1 g daily, Day 14): −4.6 (9.76) μg/g
AA, Plasma, Mean (SD) change from Baseline (1 g daily, Day 28): −11.3 (28.13) μg/g
AA, RBC, Mean (SD) change from Baseline (1 g daily, Day 28): −17.0 (20.69) μg/g
DGLA, Plasma, mean (SD) change from Baseline (1 g daily, Day 28): −10.6 (10.23) μg/g
DGLA, RBC, mean (SD) change from Baseline (1 g daily, Day 28): −3.8 (3.31) μg/g
DHA, Plasma, Mean (SD) change from Baseline (1 g daily, Day 28): −6.6 (15.53) μg/g
DHA, RBC, Mean (SD) change from Baseline (1 g daily, Day 28): −6.4 (11.57) μg/g
AA, Plasma, Mean (SD) change from Baseline (1 g daily, Day 42): −8.7 (31.35) μg/g
AA, RBC, Mean (SD) change from Baseline (1 g daily, Day 42): −14.2 (27.69) μg/g
DGLA, Plasma, mean (SD) change from Baseline (1 g daily, Day 42): −9.4 (9.41) μg/g
DGLA, RBC, mean (SD) change from Baseline (1 g daily, Day 42): −3.5 (4.51) μg/g
DHA, Plasma, Mean (SD) change from Baseline (1 g daily, Day 42): −5.4 (18.17) μg/g
DHA, RBC, Mean (SD) change from Baseline (1 g daily, Day 42): −7.0 (12.20) μg/g
EPA/AA, Plasma, mean (SD) change from Baseline (1 g daily, Day 42): 0.3
AA, Plasma, LS Mean, 1 g versus 4 g (1 g versus 4 g): 4.2 µg/g
AA, RBC, LS Mean, 1 g versus 4 g (1 g versus 4 g): 8.4 µg/g
DGLA, Plasma, LS mean, 1 g versus 4 g (1 g versus 4 g): 3.7 µg/g
DGLA, RBC, LS mean, 1 g versus 4 g (1 g versus 4 g): 1.5 µg/g
DHA, Plasma, LS mean, 1 g versus 4 g (1 g versus 4 g): -0.8 µg/g
DHA, RBC, LS mean, 1 g versus 4 g (1 g versus 4 g): 1.0 µg/g
AA, Plasma, Mean (SD) change from Baseline (2 g daily, Day 14): −13.9 (22.13) μg/g
AA, RBC, Mean (SD) change from Baseline (2 g daily, Day 14): −3.1 (25.84) μg/g
DGLA, Plasma, mean (SD) change from Baseline (2 g daily, Day 14): −14.1 (6.88) μg/g
DGLA, RBC, mean (SD) change from Baseline (2 g daily, Day 14): −2.6 (3.54) μg/g
DHA, Plasma, Mean (SD) change from Baseline (2 g daily, Day 14): −5.4 (14.29) μg/g
DHA, RBC, Mean (SD) change from Baseline (2 g daily, Day 14): −2.0 (9.46) μg/g
AA, Plasma, Mean (SD) change from Baseline (2 g daily, Day 28): 21.6 (28.32) μg/g
AA, RBC, Mean (SD) change from Baseline (2 g daily, Day 28): −14.1 (26.89) μg/g
DGLA, Plasma, mean (SD) change from Baseline (2 g daily, Day 28): −16.2 (9.88) μg/g
DGLA, RBC, mean (SD) change from Baseline (2 g daily, Day 28): −4.5 (3.58) μg/g
DHA, Plasma, Mean (SD) change from Baseline (2 g daily, Day 28): −8.1 (15.82) μg/g
DHA, RBC, Mean (SD) change from Baseline (2 g daily, Day 28): −6.2 (9.34) μg/g
AA, Plasma, Mean (SD) change from Baseline (2 g daily, Day 42): −27.3 (26.76) μg/g
AA, RBC, Mean (SD) change from Baseline (2 g daily, Day 42): −18.8 (25.62) μg/g
DGLA, Plasma, mean (SD) change from Baseline (2 g daily, Day 42): −17.3 (9.92) μg/g
DGLA, RBC, mean (SD) change from Baseline (2 g daily, Day 42): −5.3 (3.65) μg/g
DHA, Plasma, Mean (SD) change from Baseline (2 g daily, Day 42): −6.0 (16.69) μg/g
DHA, RBC, Mean (SD) change from Baseline (2 g daily, Day 42): −6.3 (9.42) μg/g
AA, Plasma, LS Mean, 2 g versus 4 g (2 g versus 4 g): 15.6 µg/g
AA, RBC, LS Mean, 2 g versus 4 g (2 g versus 4 g): 9.8 µg/g
DGLA, Plasma, LS mean, 2 g versus 4 g (2 g versus 4 g): 2.5 µg/g
DGLA, RBC, LS mean, 2 g versus 4 g (2 g versus 4 g): 1.5 µg/g
DHA, Plasma, LS mean, 2 g versus 4 g (2 g versus 4 g): 1.5 µg/g
DHA, RBC, LS mean, 2 g versus 4 g (2 g versus 4 g): 1.0 µg/g
AA, Plasma, Mean (SD) change from Baseline (4 g daily, Day 14): −27.2 (28.89) μg/g
AA, RBC, Mean (SD) change from Baseline (4 g daily, Day 14): −15.7 (26.76) μg/g
DGLA, Plasma, mean (SD) change from Baseline (4 g daily, Day 14): −22.9 (9.00) μg/g
DGLA, RBC, mean (SD) change from Baseline (4 g daily, Day 14): −5.3 (4.10) μg/g
DHA, Plasma, Mean (SD) change from Baseline (4 g daily, Day 14): −10.3 (13.35) μg/g
DHA, RBC, Mean (SD) change from Baseline (4 g daily, Day 14): −6.9 (9.13) μg/g
AA, Plasma, Mean (SD) change from Baseline (4 g daily, Day 28): −43.7 (32.24) μg/g
AA, RBC, Mean (SD) change from Baseline (4 g daily, Day 28): −22.8 (29.56) μg/g
DGLA, Plasma, mean (SD) change from Baseline (4 g daily, Day 28): −24.2 (10.73) μg/g
DGLA, RBC, mean (SD) change from Baseline (4 g daily, Day 28): −7.1 (4.63) μg/g
DHA, Plasma, Mean (SD) change from Baseline (4 g daily, Day 28): −13.5 (14.10) μg/g
DHA, RBC, Mean (SD) change from Baseline (4 g daily, Day 28): −8.7 (11.63) μg/g
AA, Plasma, Mean (SD) change from Baseline (4 g daily, Day 42): −48.3 (22.20) μg/g
AA, RBC, Mean (SD) change from Baseline (4 g daily, Day 42): −34.4 (31.44) μg/g
DGLA, Plasma, mean (SD) change from Baseline (4 g daily, Day 42): −22.5 (10.87) μg/g
DGLA, RBC, mean (SD) change from Baseline (4 g daily, Day 42): −8.0 (4.98) μg/g
DHA, Plasma, Mean (SD) change from Baseline (4 g daily, Day 42): −13.8 (15.31) μg/g
DHA, RBC, Mean (SD) change from Baseline (4 g daily, Day 42): −13.8 (13.76) μg/g
EPA, DPAn-3 and EPA/AA ratio values, change from baseline to Day 42 (plasma and RBC, 1, 2 and 4 g treatment groups): increased substantially
